Results on 19 molecules are retold here after ChEMBL document CHEMBL5385946, “Discovery of Dehydroabietylamine Derivatives as Antibacterial and Antifungal Agents” (J Nat Prod, 2024).

Holding throughout (type): functional
Test [1] concerns Escherichia coli. Nature of the test: Antibacterial activity against Escherichia coli CMCC(B)44102 by agar dilution method.
Test [2] relates to Staphylococcus aureus. Nature of the test: Antibacterial activity against Staphylococcus aureus CMCC(B)26003 by agar dilution method. A general note: In agar dilution the substance is mixed into plates at graded concentrations.
Test [3] has as its system Rhizoctonia solani. Nature of the test: Antifungal activity against Rhizoctonia solani at 50 ug/ml.
Test [4] concerns Botrytis cinerea. Nature of the test: Antifungal activity against Botrytis cinerea at 50 ug/ml.
The test system of test [5] is Fusarium graminearum. Nature of the test: Antifungal activity against Gibberella zeae at 50 ug/ml.
The test system of test [6] is Alternaria solani. Nature of the test: Antifungal activity against Alternaria solani at 50 ug/ml.

Structures are written as SMILES. Values after ≈ are worked out from the molar mass of the structure shown.

Regarding `CC(C)c1ccc2c(c1)CC[C@H]1[C@@](CNC(=O)c3ccccn3)(Cc3ccccc3)CCC[C@]21C`, the MIC in test [1] was 32 µg/mL (≈ 68.6 µM); in test [2], > 128 µg/mL. For the same molecule, the inhibition at 50 µg/mL turned out to be 1.9% in test [3], 12.4% in test [4], 3.8% in test [5] and 2.5% in test [6].
In the case of `CC(C)c1ccc2c(c1)CC[C@H]1[C@@](CN)(Cc3ccc(C(F)(F)F)cc3)CCC[C@]21C`, the MIC was 16 µg/mL (≈ 37.2 µM) in test [1] and > 128 µg/mL in test [2]. Besides, the inhibition at 50 µg/mL in test [3] came out at 38.6%; in test [4] it was 36.2%; in test [5], 25.5%; in test [6], 11.6%.
Turning to `Cc1ccc(C[C@@]2(CNC(=O)c3ccccn3)CCC[C@]3(C)c4ccc(C(C)C)cc4CC[C@@H]23)cc1C`, the MIC was 64 µg/mL (≈ 129 µM) in test [1] and > 128 µg/mL in test [2]. Also, the inhibition at 50 µg/mL in test [3] worked out at 7.4%; in test [4], 15.2%; in test [5] it was 0%; in test [6] it was 4.1%.
On to `CC(C)c1ccc2c(c1)CC[C@H]1[C@@](CNC(=O)c3ccccn3)(Cc3cccc(C(F)(F)F)c3)CCC[C@]21C`, for which the MIC in test [1] was 64 µg/mL (≈ 120 µM); in test [2], > 128 µg/mL. Also, the inhibition at 50 µg/mL in test [3] is 8.2%; in test [4], 0%; in test [5], 0%; in test [6], 1%.
Regarding `COc1ccccc1C[C@@]1(CN)CCC[C@]2(C)c3ccc(C(C)C)cc3CC[C@@H]12`, the figures for the MIC in test [1] and in test [2] were 32 µg/mL (≈ 81.7 µM) and > 128 µg/mL, respectively. The inhibition at 50 µg/mL turned out to be 44.5% in test [3], 51.4% in test [4], 24.8% in test [5] and 16.9% in test [6].
For `CCOC(=O)c1ccc(C[C@@]2(CNC(=O)c3ccccn3)CCC[C@]3(C)c4ccc(C(C)C)cc4CC[C@@H]23)cc1`, the MIC in test [1] was 32 µg/mL (≈ 59.4 µM); in test [2] it was > 128 µg/mL. Further, the inhibition at 50 µg/mL in test [3] was determined as 0%; in test [4], 0%; in test [5], 14.1%; in test [6], 1.2%.
Consider `COc1ccccc1C[C@@]1(CNC(=O)c2ccccn2)CCC[C@]2(C)c3ccc(C(C)C)cc3CC[C@@H]12`, for which the MIC was 32 µg/mL (≈ 64.4 µM) in test [1] and > 128 µg/mL in test [2]. In addition, the inhibition at 50 µg/mL was 46.2% in test [3], 20.6% in test [4], 0% in test [5] and 3% in test [6].
In the case of `CC(C)c1ccc2c(c1)CC[C@H]1[C@@](CNC(=O)c3ccccn3)(Cc3ccc(F)cc3)CCC[C@]21C`, the results for the MIC in test [1] and in test [2] were 4 µg/mL (≈ 8.25 µM) and 32 µg/mL (≈ 66 µM), respectively. Also, the inhibition at 50 µg/mL was determined as 1.2% in test [3], 0% in test [4], 0% in test [5] and 1.7% in test [6].
Turning to `CC(C)c1ccc2c(c1)CC[C@H]1[C@@](CNC(=O)c3ccccn3)(Cc3ccccc3C#N)CCC[C@]21C`, the minimum inhibitory concentration (MIC) in test [1] is 64 µg/mL (≈ 130 µM); in test [2], > 128 µg/mL. Moreover, the inhibition at 50 µg/mL in test [3] was found to be 29.3%; in test [4], 23.2%; in test [5] it was 0%; in test [6], 0%.
In the case of `COc1ccc(C[C@@]2(CNC(=O)c3ccccn3)CCC[C@]3(C)c4ccc(C(C)C)cc4CC[C@@H]23)cc1`, the figures for the MIC in test [1] and in test [2] were 64 µg/mL (≈ 129 µM) and > 128 µg/mL, respectively. Moreover, the inhibition at 50 µg/mL in test [3] is 48.6%; in test [4], 22.2%; in test [5], 4.5%; in test [6], 4.9%.
For `CC(C)c1ccc2c(c1)CC[C@H]1[C@@](CNC(=O)c3ccccn3)(Cc3ccc(C(F)(F)F)cc3)CCC[C@]21C`, the minimum inhibitory concentration (MIC) in test [1] and in test [2] was 64 µg/mL (≈ 120 µM) in each case. Also, the inhibition at 50 µg/mL is 16.3% in test [3], 1.1% in test [4], 0% in test [5] and 1.7% in test [6].
Take `CC(C)c1ccc2c(c1)CC[C@H]1[C@@](CNC(=O)c3ccccn3)(Cc3ccc(OC(F)(F)F)cc3)CCC[C@]21C`: the MIC in test [1] is 64 µg/mL (≈ 116 µM); in test [2], > 128 µg/mL. Also, the inhibition at 50 µg/mL in test [3] turned out to be 26.1%; in test [4], 0.9%; in test [5], 1.6%; in test [6], 0%.
With `CC(C)c1ccc2c(c1)CC[C@H]1[C@@](CNC(=O)c3ccccn3)(Cc3ccc(Br)cc3)CCC[C@]21C`, the values for the MIC in test [1] and in test [2] were 4 µg/mL (≈ 7.33 µM) and 32 µg/mL (≈ 58.7 µM), respectively. Also, the inhibition at 50 µg/mL is 25.2% in test [3], 20.1% in test [4], 0% in test [5] and 1.1% in test [6].
`COc1cccc(C[C@@]2(CNC(=O)c3ccccn3)CCC[C@]3(C)c4ccc(C(C)C)cc4CC[C@@H]23)c1`: the minimum inhibitory concentration (MIC) in test [1] came to 8 µg/mL (≈ 16.1 µM); in test [2] it was 16 µg/mL (≈ 32.2 µM). For the same molecule, the inhibition at 50 µg/mL was 5.2% in test [3], 3.7% in test [4], 0% in test [5] and 0% in test [6].
With `CC(C)c1ccc2c(c1)CC[C@H]1[C@@](CN)(Cc3ccc(C(C)(C)C)cc3)CCC[C@]21C`, the MIC in test [1] was 16 µg/mL (≈ 38.3 µM); in test [2], > 128 µg/mL. Further, the inhibition at 50 µg/mL turned out to be 65% in test [3], 32.4% in test [4], 3.6% in test [5] and 7.9% in test [6].
For `CC(C)c1ccc2c(c1)CC[C@H]1[C@@](CNC(=O)c3ccccn3)(Cc3ccc(N)cc3)CCC[C@]21C`, the MIC in test [1] and in test [2] was 32 µg/mL (≈ 66.4 µM) each time. Moreover, the inhibition at 50 µg/mL turned out to be 28.5% in test [3], 5.6% in test [4], 3.5% in test [5] and 4% in test [6].
On to `CC(C)c1ccc2c(c1)CC[C@H]1[C@@](CNC(=O)c3ccccn3)(Cc3cccc(C#N)c3)CCC[C@]21C`, for which the figures for the minimal inhibitory concentration (MIC) in test [1] and in test [2] were 32 µg/mL (≈ 65.1 µM) and > 128 µg/mL, respectively. Also, the inhibition at 50 µg/mL was found to be 5.8% in test [3], 6.3% in test [4], 4.5% in test [5] and 3% in test [6].
Regarding `CC(C)c1ccc2c(c1)CC[C@H]1[C@@](CNC(=O)c3ccccn3)(Cc3ccc(C(C)(C)C)cc3)CCC[C@]21C`, the figures for the MIC in test [1] and in test [2] were 8 µg/mL (≈ 15.3 µM) and > 128 µg/mL, respectively. Also, the inhibition at 50 µg/mL in test [3] was determined as 65.4%; in test [4], 38.4%; in test [5], 22.1%; in test [6], 31.6%.
In turn, `CN[C@H](CC(C)C)C(=O)N[C@H]1C(=O)N[C@@H](CC(N)=O)C(=O)N[C@H]2C(=O)N[C@H]3C(=O)N[C@H](C(=O)N[C@H](C(=O)O)c4cc(O)cc(O)c4-c4cc3ccc4O)[C@H](O)c3ccc(c(Cl)c3)Oc3cc2cc(c3O[C@@H]2O[C@H](CO)[C@@H](O)[C@H](O)[C@H]2O[C@H]2C[C@](C)(N)[C@H](O)[C@H](C)O2)Oc2ccc(cc2Cl)[C@H]1O` [VANCOMYCIN] displayed an MIC in test [1] of 128 µg/mL (≈ 88.3 µM).

A word on the MIC: it is the smallest concentration in the dilution series that meets the test's criterion for growth inhibition. A low value points to inhibition by little substance. In general, inhibition refers to the drop in the measured response relative to a control, in per cent.
